From US20240108753A1, “NUCLEIC ACID DELIVERY” (NUNTIUS THERAPEUTICS LIMITED, priority 2021, published 2024)

Key:
[1] = test system: HeLa cells; test: DNA (pCl-Luc luciferase plasmid) transfection with peptide dendrimer and lipid; format: cell-based, human; details: 0.25 μg pCl-Luc
Procedure: Cell Lines, transfection reagents and plasmids. HeLa cells were maintained in RPMI medium with 10% (v/v) FCS and 1% (v/v) P/S in a humidified atmosphere in 5% CO2 and 37° C. The plasmid pCl-Luc was derived from plasmid pCl (Promega, Southampton, UK) with the luciferase gene inserted. Branched PEI (25 kDa) was purchased from Sigma-Aldrich. Lipofectamine 2000 (L2000) and Lipofectin (DOTMA:DOPE, 1:1 (w/w)) were obtained from Invitrogen. PEI, L2000 and lipofectin were used as positive control transfection agents in accordance with the manufacturer's instructions.
Transfection procedure. 24 hours before transfection, HeLa cells were seeded (10,000 cells in 100 μL/well) in 96 well plates in order to reach 70% confluence. Plasmid transfection complexes were formed by mixing the dendrimers (100 μL, from 60 μg to 105 μg, dependent on N/P ratios) with lipofectin (4 μg; 100 μL). These mixtures were incubated with a pCl-Luc (4 μg; 100 μL) at different N/P ratios in OptiMEM for 30 min at 25° C. Transfection control complexes (PEI, Lipofectin or L2000) (total 100 μL in OptiMEM) were mixed with pCl-Luc (4 μg; 100 μL) at the respective manufacturers' recommended concentrations. For transfection in serum-free medium, before overlaying the DNA complexes on the cells, OptiMEM was added to dilute the complexes, so that each complex contained 0.25 μg DNA in a total volume of 100 μL in one well of a 96 well plate. For transfection in serum medium, before overlaying the DNA complexes on the cells, full growth medium was added to dilute the complexes, so that each complex contained 0.25 μg DNA in a total volume of 100 μL in one well of a 96 well plate. After removing complete media from the cells, the complexes were added to the plates. The plates were incubated for 4 hours at 37° C. Then, the transfection solutions were replaced by full growth media for 24 hours before luciferase activity was assayed.
Transgene expression assay. The cells were washed twice with PBS and incubated with reporter lysis buffer (20 μL, Promega) for 20 min at 4° C., then overnight at −80° C. After the cells were defrosted at room temperature, luciferase assay buffer (100 μL, Promega; prepared according to the manufacturer's protocol) was added to each well. The luminescent product was measured by Relative Light Units (RLU) in a FLUOstar Optima luminometer (BMG Labtech).
Protein content determination. The protein content of each cell lysate was determined by mixing the lysate (20 μL) with Bio-Rad Protein Assay Reagent (180 μL, Bio-Rad, Hemel Hempstead, UK). After incubation of 10 min, the absorbance at 590 nm was measured and converted to protein concentration using a BSA standard curve. RLU per mg of protein represented luciferase activity. The ratio of these two values is the activity per protein unit (in RLU/mg).

[2] = test system: Neuro2A cells; test: as above; format: cell-based, mouse; details: 0.25 μg pCl-Luc
[3] = Hydrodynamic size, polydispersity index and zeta potential of dendrimer, lipid and mRNA complexes; format: physicochemical; details: DOTMA/DOPE w/w 10:1 to mRNA; for Hydrodynamic size: dendrimer, lipid and mRNA complexes
Procedure: The hydrodynamic size, polydispersity index and Zeta potential was determined for a set of the dendrimers disclosed in Tables 1 and 2.

[4] = test system: HeLa cells; test: mRNA (eGFP) transfection with peptide dendrimers and DOTMA/DOPE in full growth medium; format: cell-based, human; details: for mRNA transfection efficiency (eGFP), in words: HeLa, full growth medium, DOTMA/DOPE w/w 10:1 to mRNA, relative to G1,2-RL, 3-LR
Procedure: FIG. 28. mRNA transfection of the peptide dendrimers with lipid system in vitro. […] The mRNA used expressed an eGFP reporter gene. Following a 24 hour transfection, the cells were harvested to assay the eGFP expression. The eGFP expression was normalised with the total amount of protein of each transfection. The gene expression level was calculated by normalising the transfection value of the G1,2-RL, 3-LR, DOTMA/DOPE & mRNA treated cells. 1st, 2nd and 3rd generation dendrimers with varying cores and 1st, 2nd, and 3rd generation peptide motifs can transfect cells with mRNA effectively under the tested conditions.
FIG. 29. mRNA transfection of the peptide dendrimers with lipid system in vitro. HeLa cells were transfected with mRNA alone or mRNA with peptide dendrimers and DOTMA/DOPE (w/w=10:1 to mRNA). The N:P ratio of G1,2-RL,3-LR was at 0.16:1 while the N:P ratios of all other dendrimers at 8:1. The mRNA used expressed an eGFP reporter gene. Following a 24 hour transfection, the cells were harvested to assay the eGFP expression. The eGFP expression was normalised with the total amount of protein of each transfection. The gene expression level was calculated by normalising the transfection value of the G1,2-RL, 3-LR, DOTMA/DOPE & mRNA treated cells. 1st, 2nd and 3rd generation dendrimers with varying cores and 1st, 2nd, and 3rd generation peptide motifs can transfect cells with mRNA effectively under the tested conditions.
The effect on the number of generations of dendrimers on mRNA delivery was studied by transfecting HeLa cells in full growth medium conditions.

[5] = test system: mice tissue; test: In vivo luciferase mRNA expression assays; details: intravenous, 6 hours; for luciferase expression in tissues, mRNA delivery: NP 0.15:1, DOTMA/DOPE w/w=10:1 to mRNA
Procedure: Peptide dendrimers were diluted to a respective concentration and mixed with mRNA for a desired NP ratio such as NP=0.15:1 or 8:1. The solution was incubated in room temperature for 10 mins. Lipid such as DOTMA/DOPE was diluted to a respective concentration and mixed with the dendrimer-mRNA complexes for a desired NP ratio such as NP-4.7:1. The solution was incubated in room temperature for 20 mins. When required, the solution would be further diluted before injection.
All animal procedures conducted in our studies complied with UK laws and were inclusive of ethics approval. Female CD-1 mice (n=39) aged 6-8 weeks left to habituate for 1-week upon their arrival. All mice were weighed, and the formulations were delivered intravenously (100 μl) via the tail vein using 30G insulin syringes (BD biosciences).
All mice were imaged 6 hours post injection. BLI was performed using an IVIS Lumina II (Perkin Elmer) Imaging system. Mice were administered D-luciferin (30 mg/mL, XenoLight, Perkin Elmer) at a dose of 150 mg/kg. Mice were anaesthetised 6 mins after receiving D-luciferin in a chamber with 5% isoflurane and then placed on a heated imaging platform while being maintained on 2.5% isoflurane. Mice were imaged 10 min post administration of D-luciferin with an exposure time set to ensure the signal acquired was within an effective detection range (open filter, binning 8, f-stop 1). Bioluminescence signal was quantified by measuring photon flux (photons/s) in the defined region of interest (ROI) using the Living Image software (Perkin Elmer). Following in vivo whole-body imaging, the mice were euthanised, cardiac blood taken, and the tissues extracted for ex vivo imaging. Here each tissue was placed into individual wells of a 24-well imaging plate (black sided, Eppendorf) containing 0.3 mg/mL D-luciferin in PBS). The imaging plate was placed in the centre of imaging platform (Lumina II system) and signal was measured using the acquisition settings detailed above. Finally, the tissues were placed in storage vials and flash frozen in liquid nitrogen.
Mice were injected with a composition comprising DOTMA/DOPE, mRNA encoding luciferase and either G1,2,3-RL, (FIG. 10, top panel; the “G1,2,3-RL, lipid and mRNA formulation”) or G1,2-RL,3-LR (FIG. 10, bottom panel: the “G1,2,3-RL, lipid and mRNA formulation”). Each formulation was prepared and injected at an NP ratio of 8:1 and 0.15:1. Mice were prepared for detection of luciferase expression post injection.

[6] = test system: immune cells; test: Immune cell targeting: uptake of labelled mRNA after intravenous injection (flow cytometry); format: in vivo, mice
Procedure: Fifteen 5-7-week-old female CD-1 mice (Charles River UK) were dosed with 1 mg/kg of either mRNA labelled with Alexa Fluor488 only or mRNA labelled with Alexa Fluor488 with NTX1 and DOTMA/DOPE or mRNA labelled with Alexa Fluor488 with G1,2-RL, 3-LR and DOTMA/DOPE or mRNA labelled with Alexa Fluor488 with G1,2-RL, 3-LR and DOTMA/DOPE, respectively, via intravenous injection using a dose volume of 5 ml/kg. Group 1 received vehicle and Group 5 received mRNA alone as controls. Mice in al groups were culled 2 hours post IV administration. At the time of euthanasia, whole blood, spleen, inguinal lymph nodes and femurs were collected from all mice. White Blood Cells (WBC) were obtained from EDTA treated whole blood, spleen, inguinal lymph nodes and bone marrow for flow cytometry analysis. In short, bone marrow (BM) was flushed from femurs, and spleens and lymph nodes were processed to single cell suspensions by passing them through a 70 μm filter. Red blood cells in blood, BM and spleen were lysed before isolated WBCs from all tissues were stained with different antibody panels to identify specific sub-populations of immune cells. The staining was performed in a 96-well plate format before samples were analysed using an ACEA Novocyte 3005 flow cytometer.

Row | Polydispersity Index (PDI) ([3]; N:P 0.16:1) | Zeta Potential ([3]; N:P 0.16:1) [mV] | Polydispersity Index (PDI) ([3]; N:P 8:1) | Zeta Potential ([3]; N:P 8:1) [mV] | Hydrodynamic size ([3]; N:P 0.16:1) [nm] | Hydrodynamic size ([3]; N:P 8:1) [nm] | Substance | DNA transfection efficiency (luciferase, normalised to D/D), in words [1] | DNA transfection efficiency (luciferase, normalised to D/D), in words [2] | mRNA transfection efficiency (eGFP), in words [4] | also measured
1 | – | – | – | – | – | – | (K)8(KK)4(KK)2KGSC-NH2 [G1,2,3-K] | not as effective as G1,2,3-KL | not as effective as G1,2,3-KL | – | –
2 | – | – | – | – | – | – | (KL)4(KKL)2KGSC-NH2 [G1,2-KL] | higher efficiency than in Neuro2A cells | – | – | –
3 | – | – | – | – | – | – | (KL)8(KKL)4(KKL)2KGSA-NH2 [Ala-G1,2,3-KL] | did not affect the transfection results | did not affect the transfection results | – | –
4 | – | – | – | – | – | – | (KL)8(KKL)4(KKL)2KKLC-NH2 [G0,1,2,3-KL] | did not affect the transfection results | did not affect the transfection results | – | –
5 | – | – | – | – | – | – | (LK)8(KLK)4(KLK)2KGSC-NH2 [G1,2,3-LK] | did not have a significant difference | did not have a significant difference | – | –
6 | 0.155 | 41 | 0.109 | 46 | 117 | 206 | (LR)4(KRL)2KRHC-NH2 [RHCG1-RL, 2-LR] | – | – | can transfect cells effectively | targeting mRNA delivery to the spleen and lung compared to G1,2-RL, 3-LR ([5]; N:P 0.15:1 or 8:1): higher efficiency than the third generation dendrimer G1,2-RL, 3-LR
7 | 0.123 | 33 | 0.566 | 45 | 129 | 366 | (R)2KRHC-NH2 [RHCG1-R] | – | – | can transfect cells effectively | –
8 | 0.114 | 37 | 0.252 | 49 | 123 | 172 | (R)4(KR)2KRHC-NH2 [RHCG1,2-R] | – | – | can transfect cells effectively | –
9 | – | – | – | – | – | – | (RL)4(KRL)2KGSC-NH2 [G1,2-RL] | higher transfection efficiency | higher transfection efficiency | – | –
10 | 0.124 | 41 | 0.087 | 47 | 135 | 213 | (RR)4(KLL)2KGSC-NH2 [G1-LL, 2-RR] | – | – | can be used to deliver mRNA | mRNA transfection efficiency as share of the improved formulation (DOTMA/DOPE w/w=10:1, N:P=0.16:1) ([4]; DOTMA/DOPE w/w=2:1 to mRNA and N:P=20:1): 10%
11 | – | – | – | – | – | – | (kl)8(kkl)4(kkl)2kgsc-NH2 [D-G1,2,3KL] | did not have any significant impact on transfection | did not have any significant impact on transfection | – | –

Row | Substance | Polydispersity Index (PDI) ([3]; N:P 0.16:1) | Zeta Potential ([3]; N:P 0.16:1) [mV] | Polydispersity Index (PDI) ([3]; N:P 8:1) | Zeta Potential ([3]; N:P 8:1) [mV] | Hydrodynamic size ([3]; N:P 0.16:1) [nm] | Hydrodynamic size ([3]; N:P 8:1) [nm] | DNA transfection efficiency (luciferase, normalised to D/D), in words [1] | DNA transfection efficiency (luciferase, normalised to D/D), in words [2] | mRNA transfection efficiency (eGFP), in words [4] | also measured
12 | (LR)8(KRL)4(KRL)2KGSCGAASSLNIAXRXRRBRRXRRBRXB-NH2 [NTX1] | 0.13 | 37 | – | – | 128 | – | – | – | more effectively than G1,2-RL, 3-RL | luciferase expression in tissues, mRNA delivery [5]: improves efficiency of mRNA delivery to lung, spleen, and lymph nodes; luciferase expression in tissues, mRNA delivery ([5]; listed as NXT1): more effective than G1,2,3-RL and G1,2-RL,3-LR; delivery of mRNA to immune cells ([6]; blood, 2 hours post-injection): Delivery of mRNA to a wide range of immune cells present in the blood is possible; uptake of mRNA in immune cells ([6]; bone marrow, 2 hrs post-injection): mediated uptake of mRNA in immune cells present in the bone marrow
